US20240336657A1, “G-ALPHA-S PEPTIDE INHIBITORS AND USES THEREOF” (The Regents of the University of California, priority 2021, published 2024)
Positions of bridges follow the written chain, without caps; N, C: chain ends. Non-standard residues stand in square brackets, D forms with d. Residues, ends and D or L forms follow the SMILES beside them.

How the values were obtained:
[1] = target: WT Gαs (Homo sapiens, UniProt P63092); test: Gαs inhibition in the presence of Gβγ (FIG. 4, FIGS. 6A-6B); type: biochemical
Chain of WT Gαs (P63092 whole entry): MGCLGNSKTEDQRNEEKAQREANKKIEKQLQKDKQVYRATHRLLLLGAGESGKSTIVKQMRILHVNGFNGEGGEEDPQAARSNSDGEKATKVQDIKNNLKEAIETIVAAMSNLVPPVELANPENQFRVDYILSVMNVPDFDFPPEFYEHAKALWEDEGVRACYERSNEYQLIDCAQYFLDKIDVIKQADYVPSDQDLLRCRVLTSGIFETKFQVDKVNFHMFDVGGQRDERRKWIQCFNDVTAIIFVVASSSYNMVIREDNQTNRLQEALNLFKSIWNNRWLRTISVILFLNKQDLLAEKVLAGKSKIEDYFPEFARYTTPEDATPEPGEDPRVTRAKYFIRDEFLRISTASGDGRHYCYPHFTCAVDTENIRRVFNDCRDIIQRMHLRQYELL

[2] = target: R201C Gαs/GDP (Homo sapiens, UniProt P63092, R201C); test: Binding to R201C Gαs/GDP (FIGS. 7A-7B)
Chain of R201C Gαs/GDP (P63092 whole entry R201C): as the sequence (P63092 whole entry) above, with R201C counted along it

[3] = target: Gαs S275L (Homo sapiens, UniProt P63092, S275L); test: Gαs inhibition with mutation in the cyclic peptide binding site (FIGS. 6A-6B); type: biochemical; conditions: in the assay tested
Chain of Gαs S275L (P63092 whole entry S275L): as the sequence (P63092 whole entry) above, with S275L counted along it

[4] = target: R201H Gαs (Homo sapiens, UniProt P63092, R201H); test: Gαs mutant inhibition in the presence of Gβγ (FIGS. 6A-6B); type: biochemical
Chain of R201H Gαs (P63092 whole entry R201H): as the sequence (P63092 whole entry) above, with R201H counted along it

[5] = target: R201C Gαs (Homo sapiens, UniProt P63092, R201C); test: Gαs mutant inhibition (FIGS. 1A-1B, FIGS. 6A-6B); type: biochemical; conditions: in the presence of Gβγ
Chain of R201C Gαs (P63092 whole entry R201C): as the sequence (P63092 whole entry) above, with R201C counted along it

[6] = target: T1, Biotinylated His/Avi-tagged Gαs used in the RaPID selection, GppNHp-bound (human, UniProt P63092 7-394, biotin on the Avi tag (BirA co-expressed)); test: RaPID comparison selection: peptide-mRNA-cDNA complexes on Gαs-immobilized streptavidin beads, qPCR and sequencing
T1 construct: Immobilized on streptavidin magnetic beads
T1 sequence (P63092 other isoform, or with tags, fused parts or gaps limits assumed): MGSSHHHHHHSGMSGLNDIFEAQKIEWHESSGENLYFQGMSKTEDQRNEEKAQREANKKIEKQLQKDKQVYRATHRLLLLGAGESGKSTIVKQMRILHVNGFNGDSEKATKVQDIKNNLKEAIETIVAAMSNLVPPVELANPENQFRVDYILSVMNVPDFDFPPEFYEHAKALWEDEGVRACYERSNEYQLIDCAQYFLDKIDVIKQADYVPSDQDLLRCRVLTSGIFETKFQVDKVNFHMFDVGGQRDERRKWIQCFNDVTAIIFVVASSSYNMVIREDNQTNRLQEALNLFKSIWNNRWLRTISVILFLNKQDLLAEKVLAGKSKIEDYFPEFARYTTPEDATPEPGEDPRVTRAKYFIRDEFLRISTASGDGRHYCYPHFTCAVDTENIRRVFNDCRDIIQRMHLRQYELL

[7] = target: WT Gαs (purified, adenylyl cyclase activity assay) (UniProt P63092-2 7-380); test: cell-based or functional assay
Chain of WT Gαs (purified, adenylyl cyclase activity assay) (P63092 other isoform, or with tags, fused parts or gaps limits assumed): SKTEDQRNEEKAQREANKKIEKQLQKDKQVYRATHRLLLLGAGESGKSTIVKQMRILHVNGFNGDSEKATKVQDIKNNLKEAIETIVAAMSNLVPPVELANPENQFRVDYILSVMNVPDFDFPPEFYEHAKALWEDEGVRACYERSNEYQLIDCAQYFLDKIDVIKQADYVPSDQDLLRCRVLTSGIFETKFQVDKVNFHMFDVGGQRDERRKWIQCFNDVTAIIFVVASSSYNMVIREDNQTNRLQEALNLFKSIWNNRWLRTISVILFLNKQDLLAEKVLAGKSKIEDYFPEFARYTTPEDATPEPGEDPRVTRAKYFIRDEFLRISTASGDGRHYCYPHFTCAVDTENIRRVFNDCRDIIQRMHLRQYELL

[8] = target: WT Gαs in HEK293 cell membranes, P63092; test: cell-based or functional assay
Chain of WT Gαs in HEK293 cell membranes, P63092 (P63092 2-394): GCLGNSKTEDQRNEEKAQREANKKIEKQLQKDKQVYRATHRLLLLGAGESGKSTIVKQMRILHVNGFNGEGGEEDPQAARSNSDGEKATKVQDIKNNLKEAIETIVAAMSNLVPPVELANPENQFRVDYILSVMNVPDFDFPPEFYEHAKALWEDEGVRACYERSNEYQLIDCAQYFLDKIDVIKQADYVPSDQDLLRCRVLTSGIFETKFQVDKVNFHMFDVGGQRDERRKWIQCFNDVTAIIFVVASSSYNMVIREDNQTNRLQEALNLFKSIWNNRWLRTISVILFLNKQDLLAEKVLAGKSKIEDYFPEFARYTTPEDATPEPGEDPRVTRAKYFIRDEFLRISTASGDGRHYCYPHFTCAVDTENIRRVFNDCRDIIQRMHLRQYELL

[9] = target: T2, Biotinylated Avi-tagged Gαi1 (residues 2-354 of human Gαi1), GDP-bound (human, UniProt P63096 2-354, biotin on the Avi tag (BirA)); test: BLI, biotinylated Gα on streptavidin biosensors
T2 construct: Loaded with GDP; also called avi-Gαi (FL, WT)
T2 sequence (P63096 other isoform, or with tags, fused parts or gaps limits assumed): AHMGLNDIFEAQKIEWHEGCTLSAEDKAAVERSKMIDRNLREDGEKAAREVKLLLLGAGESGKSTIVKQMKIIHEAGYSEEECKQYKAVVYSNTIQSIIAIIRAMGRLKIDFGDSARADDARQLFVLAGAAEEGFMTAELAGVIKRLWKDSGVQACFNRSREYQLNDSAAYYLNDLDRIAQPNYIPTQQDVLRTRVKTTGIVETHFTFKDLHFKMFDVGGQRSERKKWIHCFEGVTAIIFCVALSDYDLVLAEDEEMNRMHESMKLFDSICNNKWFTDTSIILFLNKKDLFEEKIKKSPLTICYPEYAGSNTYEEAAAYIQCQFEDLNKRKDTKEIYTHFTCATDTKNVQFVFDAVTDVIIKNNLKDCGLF
Procedure: (§1) BLI experiments were performed using an OctetRED384 instrument from ForteBio. All experiments were performed at 25° C. using BLI buffer (10 mM HEPES pH 7.4, 150 mM NaCl, 1 mM MgCl₂, 0.05% Tween-20, 0.1% DMSO, 0.2 mM GppNHp or GDP). Cyclic peptides were diluted to a series of concentrations in BLI buffer plus 10 μM Biotin. Assays were conducted in Greiner 384well, black, flat bottom polypropylene plates containing the protein solutions, BLI buffer plus 10 μM Biotin for dissociation, and serial dilutions of cyclic peptides to be tested.
(§2) Biotinylated proteins were immobilized on Streptavidin biosensors by dipping sensors into plate wells containing protein solutions at a concentration of 100-150 nM. Protein loading is around 2-3 nm. Sensors loaded with proteins were moved and dipped into wells with BLI buffer plus 10 μM Biotin to block unlabeled Streptavidin. […] Association and dissociation times were carefully determined to ensure full association and dissociation.
(§3) Raw kinetic data collected were processed with the Data Analysis software provided by the manufacturer using single reference subtraction in which buffer-only reference was subtracted (For GN13 analysis). […] The resulting data were analyzed based on a 1:1 binding model from which kₒₙ and koff values were obtained and then Kd values were calculated.

[10] = target: T3, Biotinylated Avi-tagged Gαi1 (residues 2-354 of human Gαi1), GppNHp-bound (human, UniProt P63096 2-354, biotin on the Avi tag (BirA)); test: BLI, biotinylated Gα on streptavidin biosensors
T3 construct: Loaded with GppNHp; Same polypeptide as m9, other nucleotide state
T3 sequence (P63096 other isoform, or with tags, fused parts or gaps limits assumed): as above
Procedure: as §1, §2, §3

| inhibition of WT Gαs [1] | binding to R201C Gαs/GDP [2] | inhibition with S275L mutation in the cyclic peptide binding site [3] | inhibition of R201H Gαs [4] | inhibition of R201C Gαs [5] | fold selectivity for GppNHp-bound over GDP-bound Gαs [6] [fold] | IC50, inhibition of Gαs-mediated adenylyl cyclase activation (cAMP production, reconstituted Gαs activity assay) [7] [µM] | IC50, inhibition of ISO-stimulated Gαs activity (cAMP) in HEK293 cell membranes [8] [µM] | binding result [9] | binding result [10] | Molecule |
| --- | --- | --- | --- | --- | --- | --- | --- | --- | --- | --- |
| potently inhibits | increased binding | blocked | inhibits | inhibits | – | – | – | – | – | CC[C@H](C)[C@@H]1NC(=O)[C@H](Cc2c[nH]cn2)NC(=O)[C@H](Cc2ccc(O)cc2)NC(=O)[C@H]([C@@H](C)CC)NC(=O)[C@H](CO)NC(=O)[C@H](CCC(N)=O)NC(=O)[C@H](Cc2ccccc2)NC(=O)[C@@H](Cc2ccc(O)cc2)NC(=O)CSC[C@@H](C(N)=O)NC(=O)[C@H](CC(C)C)NC(=O)[C@H](CCC(=O)O)NC(=O)CNC(=O)[C@H](Cc2c[nH]c3ccccc23)NC1=O [GR6] ({CH2CO}-[dY]FQSIYHIWGELC-NH2; thioether N-13) |
| – | – | – | – | – | > 100 | 4.15 | 12.2 | no binding | no binding | {CH2CO}-[dY]FESVYAIWGTLCG-NH2 (thioether N-13; SMILES CC[C@H](C)[C@@H]1NC(=O)[C@H](C)NC(=O)[C@H](Cc2ccc(O)cc2)NC(=O)[C@H](C(C)C)NC(=O)[C@H](CO)NC(=O)[C@H](CCC(=O)O)NC(=O)[C@H](Cc2ccccc2)NC(=O)[C@@H](Cc2ccc(O)cc2)NC(=O)CSC[C@@H](C(=O)NCC(N)=O)NC(=O)[C@H](CC(C)C)NC(=O)[C@H]([C@@H](C)O)NC(=O)CNC(=O)[C@H](Cc2c[nH]c3ccccc23)NC1=O, Residue numbers in the text (E3, V5, I8, W9, T11) fit this order; In the RaPID selections the peptide carried a GSGSGS linker, puromycin and its mRNA/cDNA; also called cyclic peptide GN13) [GN13] |
